{"source": "paper PMC9818021", "about": "“Targets, Mechanisms and Cytotoxicity of Half-Sandwich Ir(III) Complexes Are Modulated by Structural Modifications on the Benzazole Ancillary Ligand” (Cancers, 2022)", "key": {"[1]": {"experiment": "Qualitative solubility", "type": "physicochemical", "settings": "1-2 mg, solvent up to 1 mL", "procedure": "Solubility. The solubility of the complexes was qualitatively assessed. Different solvents were added drop-by-drop while shaking to a small amount of complex (around 1–2 mg) in a vial until the solvent added exceeded 1 mL. Afterwards, it was checked if the solid was or not completely dissolved and/or if the solution got coloured."}, "[2]": {"experiment": "Acid dissociation constants from absorbance vs pH", "type": "physicochemical", "settings": "for pKa2: NH dissociation to give the N anion; for pKa: free ligand; for pKa1: water dissociation to give the hydroxo complex", "procedure": "The pH measurements were carried out with a Metrohm 16 DMS Titrino pH meter fitted out with a combined glass electrode with a 3 M KCl solution as a liquid junction. HClO4 and NaOH solution were used to adjust the pH.\n(§1) The UV-vis measurements were performed with a Hewlett-Packard 8453A (Agilent Technologies, Palo Alto, CA, USA) photodiode array spectrophotometer with a Peltier temperature control system. Titrations were carried out at 25 °C by adding increasing amounts of DNA solution to the iridium complex solution. The pKa values were measured by analysing the absorbance change of iridium complex solutions recorded at different pH values. The melting experiments were carried out using a DNA solution varying the CIr-complex/CDNA (CD/CP) ratio from 0 to 1, keeping CP constant and recording the absorbance spectra while heating from 25 to 90 °C at 0.3 °C/min."}, "[3]": {"experiment": "Aquation/solvolysis kinetics (UV-vis)", "type": "physicochemical", "procedure": "Aquation/solvolysis. Chloride displacement was qualitatively monitored by ^1H-NMR for some of the complexes in DMSO-d6. The replacement of the chloride by a DMSO molecule was observed as some peaks shifted and some new peaks appeared corresponding to the methyl groups of the DMSO molecule. Aquation/solvolysis equilibria were studied by kinetic UV-vis measurements.\nas §1\nThe slow kinetic measurements were performed with the previous spectrophotometer while the fast kinetic measurements were performed in a stopped flow Bio-Logic SFM-300 spectrophotometer with an absorbance detection system and dead time below 3 ms. The kinetic curves, obtained averaging out at least five shots, were analysed with the Jandel (AISN software, Mapleton, OR) fitting package."}, "[4]": {"system": "SW480 (colon adenocarcinoma cells)", "experiment": "MTT cytotoxicity assay", "type": "cell-based, human", "settings": "SW480, 48 h", "procedure": "(§2) Cell culture. Epithelial ovarian carcinoma cells (A2780) that acquired resistance to cisplatin epithelial ovarian carcinoma cells (A2780cis), colon adenocarcinoma cells (SW480) and epithelial lung adenocarcinoma cells (A549) were provided by Sigma Aldrich. A549 and SW480 cells were grown in Dulbecco′s Modified Eagle′s Medium (DMEM), supplemented with 10% Fetal Bovine Serum (FBS) and 1% penicillin, streptomycin and 1% glutamine for A549 and 1% amphotericin B for SW480. The A2780 and A2780cis were grown in RPMI 1640 supplemented with 10% Fetal Bovine Serum (FBS), 1% glutamine and 1% penicillin, streptomycin and amphotericin B. All cells were incubated in a humidified incubator at 37 °C under a 5% CO2 atmosphere and grown in 100 mm culture dishes to approximately 70–80% confluence. For subculturing, cells were detached with Trypsin-EDTA (Sigma). A549-gal were derived from A549 cultured in glucose-free medium supplemented with 10 mM galactose (Sigma) for at least 10 passes.\n(§3) Cytotoxicity. MTT Assay and IC50 estimation. The cytotoxicity of 1[C,NH-Cl], 2[C,NMe-Cl], 3[N,NH-Cl]Cl, 4[N,NMe-Cl]Cl, 5[CNH2,NH-Cl]Cl, 6[CNH2,S-Cl]Cl, 7[CO,NH-Cl] and 8[CO,S-Cl] in A2780, A2780cis, SW480 and A549 carcinoma cells was evaluated by the MTT colorimetric assay. Cells were seeded in 96-well plates at 5000 cells per well and incubated at 37 °C, 5% CO2. After 24 h, the medium was removed and replaced with fresh medium with different concentrations of the compounds under study, and they were incubated for 48 h. Final DMSO concentration was kept below 0.7% in wells. For a negative control, one sequence of cells was left untreated and for vehicle control, cells treated with DMSO were included. For cell viability experiments preincubating with NAC (N-Acetyl-L-Cysteine), the cells were pre-treated with NAC, 10 mM for 2 h before the incubation with complex 1[C,NH-Cl] for 24 h. Then, the medium was removed from the wells, and 100 µL MTT (5 mg/mL) was added. After an incubation time of 4 h, 100 μL of solubilizing detergent solution (SDS, 10% in HCL 0.01 M) was added and kept in the incubator overnight. Cell growth inhibition was detected by measuring the absorbance of each well at 595 nm using a BioTek Cytation5 microplate reader. Each test was repeated in quadruplicate in three independent experiments for each cell line. The percentage of survival cells was calculated using absorbance measurements compared with control and the IC50 estimation using Graph Pad Prism version 6.01."}, "[5]": {"system": "A2780 (epithelial ovarian carcinoma cells)", "experiment": "MTT cytotoxicity assay", "type": "cell-based, human", "settings": "A2780, 48 h", "procedure": "as §2, §3"}, "[6]": {"system": "A2780cis (ovarian, acquired resistance to cisplatin)", "experiment": "MTT cytotoxicity assay", "type": "cell-based, human", "settings": "A2780cis, 48 h", "procedure": "as §2, §3"}, "[7]": {"system": "A549 (epithelial lung adenocarcinoma cells)", "experiment": "MTT cytotoxicity assay", "type": "cell-based, human", "settings": "A549, 48 h", "procedure": "as §2, §3"}}, "note": "Read-outs that look alike come from different tables or passages of the source."}
{"smiles": "C[S+](C)(=O)[Ir]1[c]2ccccc2-c2[nH]c3ccccc3[n+]21.Cc1c(C)c(C)[c-](C)c1C.[Cl-]", "note": "[1[C,NH-DMSO]+, [(η^5-Cp*)Ir(DMSO)(κ^2-N,C-pbim)]Cl]", "values": [{"measurement": "Solubility in water", "setting": "[1]", "result": "soluble in dimethyl sulfoxide and water"}, {"measurement": "pKa2", "setting": "[2]", "result": "8.44 ± 0.03"}]}
{"smiles": "c1ccc(-c2nc3ccccc3[nH]2)cc1", "note": "[2-phenylbenzimidazole]", "values": [{"measurement": "pKa", "setting": "[2]; deprotonation of the pyridine type N atom, read-out: pKa1", "result": "5.2 ± 0.1"}, {"measurement": "pKa", "setting": "[2]; pyrrole type N atom, read-out: pKa2", "result": "11.8 ± 0.1"}]}
{"smiles": "Cc1c(C)c(C)[c-](C)c1C.Cn1c2[n+](c3ccccc31)[Ir]([S+](C)(C)=O)[c]1ccccc1-2", "note": "[2[C,NMe-DMSO]+]", "values": [{"measurement": "Acid-base equilibrium", "setting": "[2]; absorbance vs pH", "result": "did not exhibit any acid–base equilibrium"}]}
{"smiles": "Cc1c(C)c(C)[c-](C)c1C.[OH2+][Ir]1[n+]2ccccc2-c2[nH]c3ccccc3[n+]21", "note": "[3[N,NH-H2O]2+]", "values": [{"measurement": "pKa2", "setting": "[2]", "result": "8.44 ± 0.06"}, {"measurement": "pKa1", "setting": "[2]", "result": "6.08 ± 0.04"}]}
{"smiles": "Cc1c(C)c(C)[c-](C)c1C.Cn1c2[n+](c3ccccc31)[Ir]([OH2+])[n+]1ccccc1-2", "note": "[4[N,NMe-H2O]2+]", "values": [{"measurement": "pKa1", "setting": "[2]", "result": "7.48 ± 0.01"}]}
{"smiles": "Cc1c(C)c(C)[c-](C)c1C.[OH2+][Ir]1[NH2+]c2ccccc2-c2[nH]c3ccccc3[n+]21", "note": "[5[CNH2,NH-H2O]2+]", "values": [{"measurement": "pKa2", "setting": "[2]", "result": "11.30 ± 0.17"}, {"measurement": "pKa1", "setting": "[2]", "result": "7.48 ± 0.04"}]}
{"smiles": "Cc1c(C)c(C)[c-](C)c1C.[OH2+][Ir]1[NH2+]c2ccccc2-c2sc3ccccc3[n+]21", "note": "[6[CNH2,S-H2O]2+]", "values": [{"measurement": "kaq (Cl-complex to H2O-complex)", "setting": "[3]; aqueous solution", "result": "(2.12 ± 0.01) × 10^−4 s-1"}, {"measurement": "pKa1", "setting": "[2]", "result": "8.70 ± 0.04"}]}
{"smiles": "C[S+](C)(=O)[Ir]1[O]c2ccccc2-c2[nH]c3ccccc3[n+]21.Cc1c(C)c(C)[c-](C)c1C", "note": "[7[CO,NH-DMSO]+]", "values": [{"measurement": "pKa2", "setting": "[2]", "result": "9.06 ± 0.06"}]}
{"smiles": "C[S+](C)(=O)[Ir]1[O]c2ccccc2-c2sc3ccccc3[n+]21.Cc1c(C)c(C)[c-](C)c1C", "note": "[8[CO,S-DMSO]+]", "values": [{"measurement": "kDMSO (Cl-complex to DMSO-complex)", "setting": "[3]; in DMSO", "result": "(3.11 ± 0.25) × 10^−4 s-1"}]}
{"smiles": "N.N.[Cl][Pt][Cl]", "note": "[cisPt, cisplatin, reference compound]", "values": [{"measurement": "IC50", "setting": "[4]", "result": "34 ± 1", "unit": "µM"}, {"measurement": "IC50", "setting": "[5]", "result": "7 ± 1", "unit": "µM"}, {"measurement": "IC50", "setting": "[6]", "result": "60 ± 1", "unit": "µM"}, {"measurement": "IC50", "setting": "[7]", "result": "33 ± 6", "unit": "µM"}]}
